Test results taken from patent publication US6559101B2, “N- (5, 7-dimethoxy [1, 2, 4] triazolo [1, 5-a] pyrimidin-2-yl) arylsulfonamide compounds and their use as herbicides” (Dow AgroSciences LLC, priority 2000, dated 2003).

Experiments:
Assay type in all cases: in vivo
[1] = tested on: Rox orange sorghum (Sorghum bicolor); experiment: Postemergence herbicidal activity; details: scored after 2 weeks, 0 no injury, 100 complete kill
Method: (§1) Seeds of the desired test plant species were planted in Grace-Sierra MetroMix® 306 planting mixture, which typically has a pH of 6.0 to 6.8 and an organic matter content of about 30 percent, in plastic pots with a surface area of 64 square centimeters. When required to ensure good germination and healthy plants, a fungicide treatment and/or other chemical or physical treatment was applied. The plants were grown for 7-21 days in a greenhouse with an approximately 15 hr photoperiod which was maintained at about 23-29° C. during the day and 22-28° C. during the night. Nutrients and water were added on a regular basis and supplemental lighting was provided with overhead metal halide 1000 Watt lamps as necessary. The plants were employed for testing when they reached the first or second true leaf stage. A weighed amount of each test compound, determined by the highest rate to be tested, was placed in a 20 mL glass vial and was dissolved in 4 mL of a 97:3 v/v (volume/volume) mixture of acetone and dimethyl sulfoxide to obtain concentrated stock solutions. […] The concentrated stock solutions obtained were diluted with an aqueous mixture containing acetone, water, iso-propyl alcohol, dimethyl sulfoxide, Atplus 411F crop oil concentrate, and Triton X-155 surfactant (methylenebisdiamyl phenoxy polyethoxy ethanol) in a 48.5:39:10:1.5:1.0:0.02 v/v ratio to obtain spray solutions of known concentration. The solutions containing the highest concentration to be tested were prepared by diluting 2 mL aliquots of the stock solution with 13 mL of the mixture and lower concentrations were prepared by dilution of appropriate smaller portions of the stock solution. Approximately 1.5 mL aliquots of each solution of known concentration were sprayed evenly onto each of the test plant pots using a Devilbiss atomizer driven by compressed air pressure of 2 to 4 psi (140 to 280 kiloPascals) to obtain thorough coverage of each plant. Control plants were sprayed in the same manner with the aqueous mixture. In this test an application rate of 1 ppm results in the application of approximately 1 g/ha. The treated plants and control plants were placed in a greenhouse as described above and watered by sub-irrigation to prevent wash-off of the test compounds. After 2 weeks the condition of the test plants as compared with that of the untreated plants was determined visually and scored on a scale of 0 to 100 percent where 0 corresponds to no injury and 100 corresponds to complete kill.

[2] = tested on: blackgrass (Alopecurus myosuroides); experiment: Postemergence herbicidal activity; details: scored after 2 weeks, 0 no injury, 100 complete kill
Method: as §1

[3] = tested on: chickweed (Stellaria media); experiment: Postemergence herbicidal activity; details: scored after 2 weeks, 0 no injury, 100 complete kill
Method: as §1

[4] = tested on: cocklebur (Xanthium strumarium); experiment: Postemergence herbicidal activity; details: scored after 2 weeks, 0 no injury, 100 complete kill
Method: as §1

[5] = tested on: giant foxtail (Setaria faberi); experiment: Postemergence herbicidal activity; details: scored after 2 weeks, 0 no injury, 100 complete kill
Method: as §1

[6] = tested on: lambsquarters (Chenopodium album); experiment: Postemergence herbicidal activity; details: scored after 2 weeks, 0 no injury, 100 complete kill
Method: as §1

[7] = tested on: morningglory (Ipomoea hederacea); experiment: Postemergence herbicidal activity; details: scored after 2 weeks, 0 no injury, 100 complete kill
Method: as §1

[8] = tested on: pigweed (Amaranthus retroflexus); experiment: Postemergence herbicidal activity; details: scored after 2 weeks, 0 no injury, 100 complete kill
Method: as §1

[9] = tested on: velvetleaf (Abutilion theophrasti); experiment: Postemergence herbicidal activity; details: scored after 2 weeks, 0 no injury, 100 complete kill
Method: as §1

viola (Viola tricolor) = experiment: Postemergence herbicidal activity; details: scored after 2 weeks, 0 no injury, 100 complete kill
Method: as §1

[10] = tested on: wild buckwheat (Polygonum convolvulus); experiment: Postemergence herbicidal activity; details: scored after 2 weeks, 0 no injury, 100 complete kill
Method: as §1

wild oats (Avena fatua) [11] = experiment: Postemergence herbicidal activity; details: scored after 2 weeks, 0 no injury, 100 complete kill
Method: as §1

[12] = tested on: Rox orange sorghum (Sorghum bicolor); experiment: Preemergence herbicidal activity; details: scored after 3 weeks, 0 no injury, 100 complete kill or no germination
Method: (§2) The soil matrix was contained in plastic pots with a surface area of 161 square centimeters. When required to ensure good germination and healthy plants, a fungicide treatment and/or other chemical or physical treatment was applied. A weighed amount, determined by the highest rate to be tested, of each test compound was placed in a 20 mL glass vial and was dissolved in 8 mL of a 97:3 v/v (volume/volume) mixture of acetone and dimethyl sulfoxide to obtain concentrated stock solutions. […] The stock solutions obtained were diluted with a 99.9:0.1 mixture of water and Tween® 155 surfactant (ethoxylated sorbitan fatty acid ester) to obtain application solutions of known concentration. The solutions containing the highest concentration to be tested were prepared by diluting 4 mL aliquots of the stock solution with 8.5 mL of the mixture and lower concentrations were prepared by dilution of appropriate smaller portions of the stock solution. A 2.5 mL aliquot of each solution of known concentration was sprayed evenly onto the soil of each seeded pot using a Cornwall 5.0 mL glass syringe fitted with a TeeJet TN-3 hollow cone nozzle to obtain thorough coverage of the soil in each pot. Control pots were sprayed in the same manner with the aqueous mixture. A highest application rate of 4.48 kg/ha is achieved when 50 mg of test compound is employed. The treated pots and control pots were placed in a greenhouse with an approximately 15 hr photoperiod which was maintained at about 23-29° C. during the day and 22-28° C. during the night. Nutrients and water were added on a regular basis and supplemental lighting was provided with overhead metal halide 1000 Watt lamps as necessary. The water was added by top-irrigation. After 3 weeks the condition of the test plants that germinated and grew as compared with that of the untreated plants that germinated and grew was determined visually and scored on a scale of 0 to 100 percent where 0 corresponds to no injury and 100 corresponds to complete kill or no germination.

[13] = tested on: barnyardgrass (Echinochloa crus-galli); experiment: Preemergence herbicidal activity; details: scored after 3 weeks, 0 no injury, 100 complete kill or no germination
Method: as §2

[14] = tested on: blackgrass (Alopecurus myosuroides); experiment: Preemergence herbicidal activity; details: scored after 3 weeks, 0 no injury, 100 complete kill or no germination
Method: as §2

[15] = tested on: crabgrass (Digitaria sanguinalis); experiment: Preemergence herbicidal activity; details: scored after 3 weeks, 0 no injury, 100 complete kill or no germination
Method: as §2

[16] = tested on: giant foxtail (Setaria faberi); experiment: Preemergence herbicidal activity; details: scored after 3 weeks, 0 no injury, 100 complete kill or no germination
Method: as §2

[17] = tested on: lambsquarters (Chenopodium album); experiment: Preemergence herbicidal activity; details: 35 g/Ha; scored after 3 weeks; 0 no injury, 100 complete kill or no germination
Method: as §2

[18] = tested on: morningglory (Ipomoea hederacea); experiment: Preemergence herbicidal activity; details: scored after 3 weeks, 0 no injury, 100 complete kill or no germination
Method: as §2

[19] = tested on: pigweed (Amaranthus retroflexus); experiment: Preemergence herbicidal activity; details: scored after 3 weeks, 0 no injury, 100 complete kill or no germination
Method: as §2

[20] = tested on: velvetleaf (Abutilion theophrasti); experiment: Preemergence herbicidal activity; details: scored after 3 weeks, 0 no injury, 100 complete kill or no germination
Method: as §2

wild oats (Avena fatua) [21] = experiment: Preemergence herbicidal activity; details: scored after 3 weeks, 0 no injury, 100 complete kill or no germination
Method: as §2

[22] = tested on: wild poinsettia (Euphorbia heterophylla); experiment: Preemergence herbicidal activity; details: scored after 3 weeks, 0 no injury, 100 complete kill or no germination
Method: as §2

[23] = tested on: cocklebur (Xanthium strumarium); experiment: Preemergence herbicidal activity; details: scored after 3 weeks, 0 no injury, 100 complete kill or no germination
Method: as §2

CCOc1ccc(C)cc1S(=O)(=O)Nc1nc2nc(OC)cc(OC)n2n1 [Compound 10]
Postemergence herbicidal activity SORBI ([1]; 7.8 ppm): 85%
Postemergence herbicidal activity ALOMY ([2]; 7.8 ppm): 80%
Postemergence herbicidal activity STEME ([3]; 7.8 ppm): 85%
Postemergence herbicidal activity XANST ([4]; 7.8 ppm): 50%
Postemergence herbicidal activity SETFA ([5]; 7.8 ppm): 80%
Postemergence herbicidal activity CHEAL ([6]; 7.8 ppm): 95%
Postemergence herbicidal activity IPOHE ([7]; 7.8 ppm): 20%
Postemergence herbicidal activity AMARE ([8]; 7.8 ppm): 95%
Postemergence herbicidal activity ABUTH ([9]; 7.8 ppm): 50%
Postemergence herbicidal activity VIOTR (viola (Viola tricolor); 7.8 ppm): 85%
Postemergence herbicidal activity POLCO ([10]; 7.8 ppm): 85%
Postemergence herbicidal activity AVEFA (wild oats (Avena fatua) [11]; 7.8 ppm): 90%
Preemergence herbicidal activity SORBI ([12]; 35 g/Ha): 100%
Preemergence herbicidal activity ECHCG ([13]; 35 g/Ha): 80%
Preemergence herbicidal activity ALOMY ([14]; 35 g/Ha): 30%
Preemergence herbicidal activity DIGSA ([15]; 35 g/Ha): 0%
Preemergence herbicidal activity SETFA ([16]; 35 g/Ha): 40%
Preemergence herbicidal activity CHEAL [17]: 90%
Preemergence herbicidal activity IPOHE ([18]; 35 g/Ha): 0%
Preemergence herbicidal activity AMARE ([19]; 35 g/Ha): 98%
Preemergence herbicidal activity ABUTH ([20]; 35 g/Ha): 60%
Preemergence herbicidal activity AVEFA (wild oats (Avena fatua) [21]; 35 g/Ha): 80%
Preemergence herbicidal activity EPHHL ([22]; 35 g/Ha): 40%

COc1cc(OC)n2nc(NS(=O)(=O)c3c(OC)cccc3C(F)(F)F)nc2n1 [Compound 4]
Postemergence herbicidal activity SORBI ([1]; 3.9 ppm): 95%
Postemergence herbicidal activity ALOMY ([2]; 3.9 ppm): 95%
Postemergence herbicidal activity STEME ([3]; 3.9 ppm): 99%
Postemergence herbicidal activity XANST ([4]; 3.9 ppm): 70%
Postemergence herbicidal activity SETFA ([5]; 3.9 ppm): 100%
Postemergence herbicidal activity CHEAL ([6]; 3.9 ppm): 95%
Postemergence herbicidal activity IPOHE ([7]; 3.9 ppm): 90%
Postemergence herbicidal activity AMARE ([8]; 3.9 ppm): 100%
Postemergence herbicidal activity ABUTH ([9]; 3.9 ppm): 95%
Postemergence herbicidal activity VIOTR (viola (Viola tricolor); 3.9 ppm): 90%
Postemergence herbicidal activity POLCO ([10]; 3.9 ppm): 95%
Postemergence herbicidal activity AVEFA (wild oats (Avena fatua) [11]; 3.9 ppm): 98%
Preemergence herbicidal activity SORBI ([12]; 17.5 g/Ha): 100%
Preemergence herbicidal activity ECHCG ([13]; 17.5 g/Ha): 100%
Preemergence herbicidal activity ALOMY ([14]; 17.5 g/Ha): 100%
Preemergence herbicidal activity XANST ([23]; 17.5 g/Ha): 85%
Preemergence herbicidal activity DIGSA ([15]; 17.5 g/Ha): 100%
Preemergence herbicidal activity SETFA ([16]; 17.5 g/Ha): 99%
Preemergence herbicidal activity IPOHE ([18]; 17.5 g/Ha): 98%
Preemergence herbicidal activity AMARE ([19]; 17.5 g/Ha): 99%
Preemergence herbicidal activity ABUTH ([20]; 17.5 g/Ha): 98%
Preemergence herbicidal activity AVEFA (wild oats (Avena fatua) [21]; 17.5 g/Ha): 100%
Preemergence herbicidal activity EPHHL ([22]; 17.5 g/Ha): 98%

COc1cc(OC)n2nc(NS(=O)(=O)c3cc(Cl)ccc3OC)nc2n1 [Compound 5]
Postemergence herbicidal activity SORBI ([1]; 62.5 ppm): 100%
Postemergence herbicidal activity ALOMY ([2]; 62.5 ppm): 95%
Postemergence herbicidal activity STEME ([3]; 62.5 ppm): 98%
Postemergence herbicidal activity XANST ([4]; 62.5 ppm): 100%
Postemergence herbicidal activity SETFA ([5]; 62.5 ppm): 98%
Postemergence herbicidal activity CHEAL ([6]; 62.5 ppm): 95%
Postemergence herbicidal activity IPOHE ([7]; 62.5 ppm): 80%
Postemergence herbicidal activity AMARE ([8]; 62.5 ppm): 100%
Postemergence herbicidal activity ABUTH ([9]; 62.5 ppm): 98%
Postemergence herbicidal activity VIOTR (viola (Viola tricolor); 62.5 ppm): 90%
Postemergence herbicidal activity POLCO ([10]; 62.5 ppm): 98%
Postemergence herbicidal activity AVEFA (wild oats (Avena fatua) [11]; 62.5 ppm): 99%
Preemergence herbicidal activity SORBI ([12]; 70 g/Ha): 95%
Preemergence herbicidal activity ECHCG ([13]; 70 g/Ha): 98%
Preemergence herbicidal activity ALOMY ([14]; 70 g/Ha): 100%
Preemergence herbicidal activity XANST ([23]; 70 g/Ha): 85%
Preemergence herbicidal activity DIGSA ([15]; 70 g/Ha): 99%
Preemergence herbicidal activity SETFA ([16]; 70 g/Ha): 98%
Preemergence herbicidal activity IPOHE ([18]; 70 g/Ha): 75%
Preemergence herbicidal activity AMARE ([19]; 70 g/Ha): 99%
Preemergence herbicidal activity ABUTH ([20]; 70 g/Ha): 95%
Preemergence herbicidal activity AVEFA (wild oats (Avena fatua) [21]; 70 g/Ha): 99%
Preemergence herbicidal activity EPHHL ([22]; 70 g/Ha): 90%
